# From US6864086B2, “Nitric oxide-scavenging system for culturing oocytes, embryos, or other cells” (Board of Supervisors of Louisiana State University and …, priority 1998, dated 2005)
# Test system: bovine embryos
# Assay: Example 9: L-NAME (1 or 1000 nM) added to mBECM containing serum and Hb, pre-hatching development
# Format: cell-based
# Parameters: key to Least square mean of embryos developed to 16-cell / Least square mean of embryos developed to Blastocyst / Least square mean of embryos developed to 2-cell / Least square mean of embryos developed to 8-cell / Least square mean of embryos developed to Morula: fraction developed; each embryo scored 1 = developed, 0 = not developed
# Conditions: for Number of embryos developed to 2-cell / Number of embryos developed to 8-cell / Number of embryos developed to 16-cell / Number of embryos developed to Morula / Number of embryos developed to Blastocyst: 96 embryos; for Number of embryos developed to 2-cell / Least square mean of embryos developed to 2-cell: 48 h; for Number of embryos developed to 8-cell / Least square mean of embryos developed to 8-cell: 60 h; for Number of embryos developed to 16-cell / Least square mean of embryos developed to 16-cell: 120 h; for Number of embryos developed to Morula / Least square mean of embryos developed to Morula: 144 h; for Number of embryos developed to Blastocyst / Least square mean of embryos developed to Blastocyst: 192 h
# Procedure: The basic medium used for maturation of oocytes was tissue culture medium (TCM)-199 with Earle's salts, buffered with 25 mM HEPES (Gibco BRL, Grand Island, N.Y.) and supplemented with 10% (v/v) heat-inactivated fetal bovine serum (FBS; Hyclone Laboratories, Logan, Utah), 1 μg/ml estradiol-17β (NOBL Laboratories, Sioux Center, Iowa), 3 μg/ml bovine FSH (NOBL Laboratories), 6 μg/ml bovine LH (NOBL Laboratories), and 25 μg/ml gentamycin (Sigma Chemical Co., St. Louis, Mo.). The basic medium used for treatment of spermatozoa and fertilization of oocytes was a modified Tyrode's medium (J. Parrish et al., Capacitation of bovine sperm by heparin. Biol. Reprod. 38:1171-1180 (1988)), supplemented with 0.25 mM sodium pyruvate (Gibco BRL), 6 mg/ml fatty acid (FA)-free BSA (No. A-6003, Sigma), 15 μg/ml calcium heparin from porcine intestinal mucosa (183 USP/mg; H-8398, Sigma), and 25 μg/ml gentamycin. Modified bovine embryo culture medium (mBECM) containing 10 μM β-mercaptoethanol was used for culture of embryos, as described in J. Lim et al., “Roles of growth factors in the development of bovine embryos fertilized in vitro and cultured singly in a defined medium,” Reprod. Fertil. Dev., 8:1199-1205 (1996). mBECM supplemented with 10% (v/v) FBS was used for co-culturing inseminated oocytes with CGC. Osmolarity of the medium was maintained within the range of 265-290 mOsm.
# All cumulus-oocyte complexes (COC) were collected in Madison, Wis. (BOMED, Inc.) and were shipped in 2 ml of maturation medium in a battery powered incubator via overnight express mail service. Oocytes matured during transit and arrived within 24 h after exposure to maturation medium, pre-equilibrated at 39° C. in 5% CO2 in air. At 22 to 24 h after exposure to the medium, the COCs were inseminated in vitro as described in J. Lim et al., “Intracytoplasmic glutathione concentration and the role of β-mercaptoethanol in preimplantation development of bovine embryos,” Theriogenology, 46:429-439 (1996). At 18 h post-insemination, COCs were cultured in groups (28-40 embryos) in a 4-well multidish (Nunc, Roskilde, Denmark) containing 0.8-ml of mBECM. Embryos were dislodged from CGC at 36 to 48 h post-insemination.
# In Example 9, IVF embryos were cultured in MBECM supplemented as follows: 1) no addition (control), 2) Hb (1 μg/ml), 3) Hb plus L-NAME (1 nM), and 4) Hb plus L-NAME (1000 nM). Embryonic development was evaluated up to 192 h post-insemination. A total of 384 oocytes were inseminated, and were randomly and equally allotted to 4 replicates.
# Embryos developed to the 2-cell, 8-cell, 16-cell, morula, and blastocyst stages at the pertinent observation times were individually scored ‘1’ (developed). Embryos that had not developed to these stages at the same times were scored ‘0’ (non-developed). Sums of the scores at each stage of development were evaluated by analysis of variance using a general linear model (PROC-GLM) in the SAS statistical programming package (1991). In Example 8, the combined effects of Hb addition and month of oocyte collection were first examined in a 2×7 factorial arrangement. Overall differences in embryonic development in Hb-free and Hb-containing culture systems were further evaluated. […] Differences were regarded as statistically significant where P values were less than 0.05.
compound,measurement,setting,value
"COC(=O)[C@@H](N)CCCN=C(N)N[N+](=O)[O-].Cl [L-NAME, N^G-Lω-nitro-L-arginine methyl ester hydrochloride]",Number of embryos developed to 2-cell,L-NAME 1 nM with Hb 1 μg/ml,78
same,Number of embryos developed to 8-cell,L-NAME 1 nM with Hb 1 μg/ml,60
same,Number of embryos developed to 16-cell,L-NAME 1 nM with Hb 1 μg/ml,46
same,Number of embryos developed to Morula,L-NAME 1 nM with Hb 1 μg/ml,38
same,Number of embryos developed to Blastocyst,L-NAME 1 nM with Hb 1 μg/ml,26
same,Least square mean of embryos developed to 2-cell,L-NAME 1 nM with Hb 1 μg/ml,0.813
same,Least square mean of embryos developed to 8-cell,L-NAME 1 nM with Hb 1 μg/ml,0.625
same,Least square mean of embryos developed to 16-cell,L-NAME 1 nM with Hb 1 μg/ml,0.479
same,Least square mean of embryos developed to Morula,L-NAME 1 nM with Hb 1 μg/ml,0.396
same,Least square mean of embryos developed to Blastocyst,L-NAME 1 nM with Hb 1 μg/ml,0.271
same,Number of embryos developed to 2-cell,L-NAME 1000 nM with Hb 1 μg/ml,70
same,Number of embryos developed to 8-cell,L-NAME 1000 nM with Hb 1 μg/ml,50
same,Number of embryos developed to 16-cell,L-NAME 1000 nM with Hb 1 μg/ml,40
same,Number of embryos developed to Morula,L-NAME 1000 nM with Hb 1 μg/ml,28
same,Number of embryos developed to Blastocyst,L-NAME 1000 nM with Hb 1 μg/ml,19
same,Least square mean of embryos developed to 2-cell,L-NAME 1000 nM with Hb 1 μg/ml,0.729
same,Least square mean of embryos developed to 8-cell,L-NAME 1000 nM with Hb 1 μg/ml,0.521
same,Least square mean of embryos developed to 16-cell,L-NAME 1000 nM with Hb 1 μg/ml,0.416
same,Least square mean of embryos developed to Morula,L-NAME 1000 nM with Hb 1 μg/ml,0.292
same,Least square mean of embryos developed to Blastocyst,L-NAME 1000 nM with Hb 1 μg/ml,0.198
same,further stimulation of embryonic development to the blastocyst stage,"L-NAME added to culture medium containing Hb, P>0.07",did not further stimulate
